# Measured values from patent publication US12110293B2, “Substituted triazolo quinoxaline derivatives” (GRÜNENTHAL GMBH, priority 2018, dated 2024).
# Target: T1, glucocorticoid receptor (Homo sapiens, UniProt P04150)
# T1 construct: expressed in transfected cells
# T1 sequence (P04150 524-758 limits assumed): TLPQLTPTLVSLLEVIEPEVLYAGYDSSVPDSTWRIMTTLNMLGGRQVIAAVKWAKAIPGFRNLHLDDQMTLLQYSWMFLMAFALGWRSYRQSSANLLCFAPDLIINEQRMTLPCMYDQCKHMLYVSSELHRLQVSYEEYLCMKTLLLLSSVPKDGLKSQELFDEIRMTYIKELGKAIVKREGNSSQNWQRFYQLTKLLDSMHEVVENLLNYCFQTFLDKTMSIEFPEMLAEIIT
# Test: Agonistic mode of action on the glucocorticoid receptor (CHO-Gal4/GR luciferase reporter cell line)
# Type: cell-based
# Conditions: range class observed in the agonistic assay or the antagonistic assay (CHO-Gal4/GR reporter cells); table does not say which mode applies per example
# Description: Potential selective glucocorticoid receptor modulators of this intervention can be tested for modulation of the activity of the glucocorticoid receptor using cell-based assays. These assays involve a Chinese hamster ovary (CHO) cell line which contains fragments of the glucocorticoid receptor as well as fusion proteins. The glucocorticoid receptor fragments used are capable of binding the ligand (e.g. beclomethasone) to identify molecules that compete for binding with glucocorticoid receptor ligands. In more detail, the glucocorticoid receptor ligand binding domain is 25 fused to the DNA binding domain (DBD) of the transcriptionfactor GAL4 (GAL4 DBD-GR) and is stably integrated into a CHO cell line containing a GAL4-UAS-Luciferase reporter construct. […] After cell lysis the luminescence that is produced by luciferase after addition of the substrate is detected and EC50 or IC50 values can be calculated. Engagement of molecules which induce gene expression via glucocortocoid receptor binding to the DNA leads to expression of the luciferase gene under the control of the fusion protein GAL4 DBD-GR and therefore to a dose-dependent increase of the luminescence signal. Binding of molecules which repress beclomethasone-induced gene expression of the luciferase gene under the control of the fusion protein GAL4 DBD-GR leads to a dose-dependent reduction of the luminescence signal.
# Biological Assays Agonistic Mode of Action on the Glucocorticoid Receptor
# The reporter cell line CHO-Gal4/GR consisted of a Chinese hamster ovary (CHO) cell line (Leibniz Institute DSMZ—German Collection of Microorganisms and Cell CuItures GmbH: ACC-110) containing a firefly luciferase gene under the control of the GR ligand binding domain fused to the DNA binding domain (DBD) of GAL4 (GAL4 DBD-GR) stably integrated into CHO cells. This cell line was established by stable transfection of CHO cells with a GAL4-UAS-Luciferase reporter construct. In a subsequent step the ligand binding domain of the GR cloned into pIRES2-EGFP-GAL4 containing the DNA binding domain of GAL4 from pFA-AT2 was transfected. This fusion construct activated firefly luciferase expression under the control of a multimerized GAL4 upstream activation sequence (UAS). The signal of the emitted luminescence was recorded by the FLIPR^TETRA. This allowed for specific detection of ligand-induced activation of the GR and therefore for the identification of compounds with agonistic properties. The GAL4/UAS reporter was premixed with a vector that constitutively expressed Renilla luciferase, which served as an internal positive control for transfection efficiency.
# The complete culture medium for the assay was: • DMEM F-12 (1:1) MIXTURE (LONZA cat. N°: BE04-687F/U1) 500 mL • 5 mL of 100 mM Sodium Pyruvate (LONZA cat. N°: BE12-115E) • 25 mL of 7.5% Sodium Bicarbonate (LONZA cat. N° BE17-613E) • 6.5 mL of 1 M Hepes (LONZA cat. N°: BE17-737E) • 5 mL of 100× Penicillin/Streptomycin (LONZA cat. N° DE17-602E) • 50 mL of Fetal Bovine Serum (Euroclone cat. N° ECS 0180L) • 0.25 mL of 10 mg/mL Puromycin (InvivoGen cat.: ant-pr-1) • 0.5 mL of 100 mg/mL Zeocin (InvivoGen cat.: ant-zn-1)
# Cryo-preserved CHO-Gal4/GR cells were suspended in complete medium and 5000 cells/25 μl/well were seeded into the wells of 384-well polystyrene assay plates (Thermo Scientific, cat. #4332) and cultured at 37° C., 5% CO2 and 95% humidity. After 24 hours growth medium was carefully removed and replaced by 30 μl Opti-MEM (GIBCO, cat. #31985062) as assay buffer. To test the compounds an 8-point half-log compound dilution curve was generated in 100% DMSO starting from a 2 mM stock and compounds were then diluted 1:50 in Opti-MEM. 10 μl of compounds were then added to the wells containing 30 μl Opti-MEM resulting in a final assay concentration range from 10 μM to 0.003 μM in 0.5% DMSO. Compounds were tested at 8 concentrations in quadruplicate data points.
row,SMILES,IC50 or EC50 (agonist or antagonist mode not specified)
1,"Cc1c[nH]c2c(-c3c(F)cc4c(c3F)-n3c(Cc5ccccn5)nnc3C(C)(C)N4)cc(F)cc12 [Example 74, 7,9-Difluoro-8-(5-fluoro-3-methyl-1H-indol-7-yl)-4,4-dimethyl-1-(pyridin-2-yl-methyl)-5H-[1,2,4]triazolo[4,3-a]quinoxaline]",< 100 nM
2,"Cc1nnc2n1-c1c(cc(F)c(-c3cccc4c3ccn4CC(F)F)c1C(F)F)NC2(C)C [Example 398, 8-[1-(2,2-Difluoro-ethyl)-1H-indol-4-yl]-9-(difluoro-methyl)-7-fluoro-1,4,4-trimethyl-5H-[1,2,4]triazolo [4,3-a]quinoxaline]",100 to 1000 nM
3,"CC#CCc1nnc2n1-c1c(cc(F)c(-c3cccc4c(C)c[nH]c34)c1F)NC2(C)C [Example 70, 1-(but-2-yn-1-yl)-7,9-difluoro-4,4-dimethyl-8-(3-methyl-1H-indol-7-yl)-4,5-dihydro-[1,2,4]triazolo[4,3-a]quinoxaline]",< 100 nM
4,"Cc1cc(-c2c(F)cc3c(c2F)-n2c(C)nnc2C(C)(C)N3)c2ccn(S(C)(=O)=O)c2c1 [Example 492, 7,9-Difluoro-1,4,4-trimethyl-8-(6-methyl-1-methylsulfonyl-1H-indol-4-yl)-5H-[1,2,4]triazolo [4,3-a]quinoxaline]",< 100 nM
5,"Cc1nnc2n1-c1c(cc(F)c(-c3cc(C(F)(F)F)cc4[nH]ccc34)c1C(F)(F)F)NC2(C)C [Example 473, 7-Fluoro-1,4,4-trimethyl-9-(trifluoromethyl)-8-[6-(trifluoromethyl)-1H-indol-4-yl]-5H-[1,2,4]triazolo[4,3-a] quinoxaline]",100 to 1000 nM
6,"COc1cc2c(c(C(F)(F)F)c1-c1cccc3c1ccn3CC(F)F)-n1c(C)nnc1C(C)(C)N2 [Example 500, 8-[1-(2,2-Difluoro-ethyl)-1H-indol-4-yl]-7-methoxy-1,4,4-trimethyl-9-(trifluoromethyl)-5H-[1,2,4]triazolo[4,3-a]quinoxaline]",100 to 1000 nM
7,"Cc1nnc2n1-c1c(cc(F)c(-c3cccc4c3ccn4S(=O)(=O)C3CC3)c1F)NC2(C)C [Example 205, 8-[1-(Cyclopropylsulfonyl)-1H-indol-4-yl]-7,9-difluoro-1,4,4-trimethyl-5H-[1,2,4]triazolo[4,3-a]quinoxaline]",100 to 1000 nM
8,"Cc1c(-c2cccc3c2ccn3S(C)(=O)=O)c(OC(F)(F)F)cc2c1-n1c(C)nnc1C(C)(C)N2 [Example 465, 1,4,4,9-Tetramethyl-8-(1-methylsulfonyl-1H-indol-4-yl)-7-(trifluoromethyloxy)-5H-[1,2,4]triazolo[4,3-a]quinoxaline]",< 100 nM
9,"Cc1c[nH]c2c(-c3ccc4c(c3C(F)(F)F)-n3c(C)nnc3C(C)(C)N4)cc(F)cc12 [Example 507, 8-(5-Fluoro-3-methyl-1H-indol-7-yl)-1,4,4-trimethyl-9-(trifluoro-methyl)-5H-[1,2,4]triazolo[4,3-a] quinoxaline]",< 100 nM
10,"Cc1c[nH]c2c(-c3c(OC(F)F)cc4c(c3F)-n3c(C)nnc3C(C)(C)N4)cc(F)cc12 [Example 267, 7-(Difluoro-methoxy)-9-fluoro-8-(5-fluoro-3-methyl-1H-indol-7-yl)-1,4,4-trimethyl-5H-[1,2,4]triazolo[4,3-a]quinoxaline]",100 to 1000 nM
11,"Cc1cc2c(c(C)c1-c1cc(F)cc3c(C)c[nH]c13)-n1c(C)nnc1C(C)(C)N2 [Example 341, 8-(5-Fluoro-3-methyl-1H-indol-7-yl)-1,4,4,7,9-pentamethyl-5H-[1,2,4]triazolo[4,3-a]quinoxaline]",100 to 1000 nM
12,"Cc1c[nH]c2c(-c3c(F)cc4c(c3C(F)(F)F)-n3c(C)nnc3C(C)(C)N4)cccc12 [Example 29, 7-fluoro-1,4,4-trimethyl-8-(3-methyl-1H-indol-7-yl)-9-(trifluoromethyl)-4,5-dihydro-[1,2,4]triazolo[4,3-a]quinoxaline]",< 100 nM
13,"Cc1nnc2n1-c1c(cc(F)c(-c3cc(Cl)cc4[nH]ccc34)c1F)NC2(C)C [Example 511, 8-(6-Chloro-1H-indol-4-yl)-7,9-difluoro-l,4,4-trimethyl-5H-[1,2,4]triazolo[4,3-a]quinoxaline]",< 100 nM

# The remaining lines, values ahead:
row,IC50 or EC50 (agonist or antagonist mode not specified),SMILES
1,100 to 1000 nM,"Cc1nnc2n1-c1c(cc(F)c(-c3cccc4c3cnn4S(=O)(=O)CC3CC3)c1F)NC2(C)C [Example 239, 8-[1-(Cyclopropyl-methylsulfonyl)-1H-indazol-4-yl]-7,9-difluoro-1,4,4-trimethyl-5H-[1,2,4]triazolo[4,3-a]quinoxaline]"
2,100 to 1000 nM,"Cc1c(-c2cccc3cc[nH]c23)c(F)cc2c1-n1c(C)nnc1C(C)(C)N2 [Example 25, 7-fluoro-8-(1H-indol-7-yl)-1,4,4,9-tetramethyl-4,5-dihydro-[1,2,4]triazolo[4,3-a]quinoxaline]"
3,100 to 1000 nM,"COc1c(-c2cccc3c2cnn3C)c(F)cc2c1-n1c(C)nnc1C(C)(C)N2 [Example 264, 7-Fluoro-9-methoxy-1,4,4-trimethyl-8-(1-methyl-1H-indazol-4-yl)-5H-[1,2,4]triazolo[4,3-a]quinoxaline]"
4,1000 to 15000 nM,"Cc1nnc2n1-c1c(cc(F)c(-c3cccc4c3ccn4S(=O)(=O)C(C)C)c1F)NC2(C)C [Example 200, 7,9-Difluoro-8-[1-(isopropylsulfonyl)-1H-indol-4-yl]-1,4,4-trimethyl-5H-[1,2,4]triazolo[4,3-a]quinoxaline]"
5,1000 to 15000 nM,"COc1c(-c2cc(F)cc3c2ccn3CCO)c(F)cc2c1-n1c(C)nnc1C(C)(C)N2 [Example 380, 2-[6-Fluoro-4-(7-fluoro-9-methoxy-1,4,4-trimethyl-5H-[1,2,4]triazolo [4,3-a]quinoxalin-8-yl)-1H-indol-1-yl]-ethanol]"
6,1000 to 15000 nM,"CCc1nnc2n1-c1c(cc(F)c(-c3cccc4c3cnn4C)c1C)NC2(C)C [Example 240, 1-Ethyl-7-fluoro-4,4,9-trimethyl-8-(1-methyl-1H-indazol-4-yl)-5H-[1,2,4]triazolo[4,3-a]quinoxaline]"
7,< 100 nM,"CCS(=O)(=O)n1ccc2c(-c3c(F)cc4c(c3C)-n3c(C)nnc3C(C)(C)N4)cccc21 [Example 372, 8-[1-(Ethylsulfonyl)-1H-indol-4-yl]-7-fluoro-1,4,4,9-tetramethyl-5H-[1,2,4]triazolo[4,3-a]quinoxaline]"
8,< 100 nM,"COc1c(-c2cc(F)cc3c2ccn3S(C)(=O)=O)c(F)cc2c1-n1c(C)nnc1C(C)(C)N2 [Example 250, 7-Fluoro-8-(6-fluoro-1-methylsulfonyl-1H-indol-4-yl)-9-methoxy-1,4,4-trimethyl-5H-[1,2,4]triazolo[4,3-a]quinoxaline]"
9,1000 to 15000 nM,"COc1cc2c(c(F)c1-c1cccc3c1ccn3CC(F)F)-n1c(C)nnc1C(C)(C)N2 [Example 314, 8-[1-(2,2-Difluoro-ethyl)-1H-indol-4-yl]-9-fluoro-7-methoxy-1,4,4-trimethyl-5H-[1,2,4]triazolo[4,3-a]quinoxaline]"
